Assay results as given in ChEMBL document CHEMBL1212786 (Antimicrob Agents Chemother, 2010).
pEC50, pIC50: −log10 of the molar value.

Experiments:
Hepatitis C virus [1] = test: Antiviral activity against Hepatitis C virus infected in human Huh7ET cells assessed as inhibition of viral replication after 72 hrs by luciferase reporter gene assay; assay type: functional, organism-based
[2] = Cytotoxicity against human Huh7ET cells assessed as lactate dehydrogenase release up to 5 uM after 72 hrs; assay type: cell-based; conditions: huh-7, 72 h
Liver microsomes = test: Intrinsic clearance in human liver microsomes at 1 uM after 5 to 30 mins by MS analysis in presence of NADPH; assay type: ADME, Microsome
Cytochrome P450 2C19 = Cytochrome P450 2C19 (Homo sapiens, UniProt P33261); test: Inhibition of human recombinant CYP2C19 after 30 mins; assay type: ADME
Cytochrome P450 2C9 = Cytochrome P450 2C9 (Homo sapiens, UniProt P11712); test: Inhibition of human recombinant CYP2C9 after 30 mins; assay type: ADME
Cytochrome P450 2D6 = Cytochrome P450 2D6 (Homo sapiens, UniProt P10635); test: Inhibition of human recombinant CYP2D6 after 30 mins; assay type: ADME
[3] = Cmax in Sprague-Dawley rat at 5 mg/kg, iv after 24 hrs by LC/MS/MS analysis; assay type: ADME, organism-based; set-up: dose 5 mg/kg, route intravenous; conditions: in vivo
[4] = Cmax in monkey at 1 mg/kg, iv after 24 hrs by LC/MS/MS analysis; assay type: ADME, organism-based, Macaca mulatta; set-up: dose 1 mg/kg, route intravenous; conditions: rhesus monkey, in vivo
[5] = Apparent volume of distribution in Sprague-Dawley rat at 5 mg/kg, iv after 24 hrs by LC/MS/MS analysis; assay type: ADME, organism-based; set-up: dose 5 mg/kg, route intravenous; conditions: in vivo, read-out: Vz
[6] = Apparent volume of distribution in monkey at 1.4 mg/kg, iv after 24 hrs by LC/MS/MS analysis; assay type: ADME, organism-based, Macaca mulatta; set-up: dose 1.4 mg/kg, route intravenous; conditions: rhesus monkey, in vivo, read-out: Vz
[7] = Apparent volume of distribution in monkey at 1 mg/kg, iv after 24 hrs by LC/MS/MS analysis; assay type: ADME, organism-based, Macaca mulatta; set-up: dose 1 mg/kg, route intravenous; conditions: rhesus monkey, in vivo, read-out: Vz
[8] = Systemic clearance in Sprague-Dawley rat at 2 mg/kg, iv after 24 hrs by LC/MS/MS analysis; assay type: ADME, organism-based; set-up: dose 2 mg/kg, route intravenous; conditions: in vivo
[9] = Systemic clearance in Sprague-Dawley rat at 5 mg/kg, iv after 24 hrs by LC/MS/MS analysis; assay type: ADME, organism-based; set-up: dose 5 mg/kg, route intravenous; conditions: in vivo
[10] = Apparent elimination half life in Sprague-Dawley rat at 2 mg/kg, iv by LC/MS/MS analysis; assay type: ADME, organism-based; set-up: dose 2 mg/kg, route intravenous; conditions: in vivo
[11] = Apparent elimination half life in Sprague-Dawley rat at 5 mg/kg, iv by LC/MS/MS analysis; assay type: ADME, organism-based; set-up: dose 5 mg/kg, route intravenous; conditions: in vivo
[12] = Apparent elimination half life in monkey at 1.4 mg/kg, iv by LC/MS/MS analysis; assay type: ADME, organism-based, Macaca mulatta; set-up: dose 1.4 mg/kg, route intravenous; conditions: rhesus monkey, in vivo
[13] = AUC (0 to infinity) in Sprague-Dawley rat at 2 mg/kg, iv after 24 hrs by LC/MS/MS analysis; assay type: ADME, organism-based; set-up: time infinity, dose 2 mg/kg, route intravenous; conditions: plasma
[14] = AUC (0 to infinity) in monkey at 1.4 mg/kg, iv after 24 hrs by LC/MS/MS analysis; assay type: ADME, organism-based, Macaca mulatta; set-up: time infinity, dose 1.4 mg/kg, route intravenous; conditions: rhesus monkey, plasma
[15] = Cmax in Sprague-Dawley rat at 20 mg/kg, po after 24 hrs by LC/MS/MS analysis; assay type: ADME, organism-based; set-up: dose 20 mg/kg, route oral; conditions: in vivo
[16] = Cmax in Sprague-Dawley rat at 5 mg/kg, po after 24 hrs by LC/MS/MS analysis; assay type: ADME, organism-based; set-up: dose 5 mg/kg, route oral; conditions: in vivo
[17] = Cmax in monkey at 15 mg/kg, po after 24 hrs by LC/MS/MS analysis; assay type: ADME, organism-based, Macaca mulatta; set-up: dose 15 mg/kg, route oral; conditions: rhesus monkey, in vivo
[18] = Cmax in monkey at 5 mg/kg, po after 24 hrs by LC/MS/MS analysis; assay type: ADME, organism-based, Macaca mulatta; set-up: dose 5 mg/kg, route oral; conditions: rhesus monkey, in vivo
[19] = Cmax in monkey at 7.5 mg/kg, po after 24 hrs by LC/MS/MS analysis; assay type: ADME, organism-based, Macaca mulatta; set-up: dose 7.5 mg/kg, route oral; conditions: rhesus monkey, in vivo
[20] = Tmax in Sprague-Dawley rat at 5 mg/kg, po by LC/MS/MS analysis; assay type: ADME, organism-based; set-up: dose 5 mg/kg, route oral; conditions: in vivo
[21] = Tmax in Sprague-Dawley rat at 20 mg/kg, po by LC/MS/MS analysis; assay type: ADME, organism-based; set-up: dose 20 mg/kg, route oral; conditions: in vivo
[22] = Tmax in monkey at 15 mg/kg, po by LC/MS/MS analysis; assay type: ADME, organism-based, Macaca mulatta; set-up: dose 15 mg/kg, route oral; conditions: rhesus monkey, in vivo
[23] = AUC (0 to infinity) in monkey at 15 mg/kg, po after 24 hrs by LC/MS/MS analysis; assay type: ADME, organism-based, Macaca mulatta; set-up: time infinity, dose 15 mg/kg, route oral; conditions: rhesus monkey, plasma
[24] = Apparent elimination half life in monkey at 5 mg/kg, po after 24 hrs by LC/MS/MS analysis; assay type: ADME, organism-based, Macaca mulatta; set-up: dose 5 mg/kg, route oral; conditions: rhesus monkey, in vivo
[25] = Apparent elimination half life in monkey at 15 mg/kg, po after 24 hrs by LC/MS/MS analysis; assay type: ADME, organism-based, Macaca mulatta; set-up: dose 15 mg/kg, route oral; conditions: rhesus monkey, in vivo
[26] = Oral bioavailability in Sprague-Dawley rat at 10 mg/kg after 24 hrs by LC/MS/MS analysis; assay type: ADME, organism-based; conditions: in vivo
[27] = Oral bioavailability in Sprague-Dawley rat at 20 mg/kg after 24 hrs by LC/MS/MS analysis; assay type: ADME, organism-based; conditions: in vivo
[28] = Oral bioavailability in monkey at 5 mg/kg after 24 hrs by LC/MS/MS analysis; assay type: ADME, organism-based, Macaca mulatta; conditions: rhesus monkey, in vivo
[29] = Oral bioavailability in monkey at 7.5 mg/kg after 24 hrs by LC/MS/MS analysis; assay type: ADME, organism-based, Macaca mulatta; conditions: rhesus monkey, in vivo
[30] = AUC (2 to 24 hrs) in Sprague-Dawley rat liver at 10 mg/kg, iv by LC/MS/MS analysis; assay type: ADME, organism-based; set-up: time 2-24 hr, dose 10 mg/kg, route intravenous
[31] = Cmax in Sprague-Dawley rat liver at 10 mg/kg, iv by LC/MS/MS analysis; assay type: ADME, organism-based; set-up: dose 10 mg/kg, route intravenous
[32] = Cmax in Sprague-Dawley rat liver at 30 mg/kg, po by LC/MS/MS analysis; assay type: ADME, organism-based; set-up: dose 30 mg/kg, route oral
[33] = Cmax in Sprague-Dawley rat whole blood at 10 mg/kg, po by LC/MS/MS analysis; assay type: ADME, organism-based; set-up: dose 10 mg/kg, route oral
[34] = Cmax in Sprague-Dawley rat whole blood at 30 mg/kg, po by LC/MS/MS analysis; assay type: ADME, organism-based; set-up: dose 30 mg/kg, route oral
Hepatocyte = test: Cellular uptake in human hepatocytes assessed per mg of cellular protein association with nonparenchymal fraction at 0.378 uM after 1 hr by LC/MS/MS analysis; assay type: ADME, cell-based
Hepatitis C virus [35] = test: Antiviral activity against Hepatitis C virus infected in human Huh7ET cells assessed as inhibition of viral replication at 0.02 to 5 uM by luciferase reporter gene assay; assay type: functional, organism-based; conditions: Hepacivirus hominis, Huh-7, TDE = time-dependent effect
[36] = Cytotoxicity against human Huh7ET cells assessed as lactate dehydrogenase release after 72 hrs; assay type: cell-based, Huh-7
[37] = Cytotoxicity against human Huh7 cells assessed as lactate dehydrogenase release after 72 hrs; assay type: cell-based, Huh-7
PBMC = test: Cytotoxicity against human PBMC at 0.0031 uM after 18 hrs; assay type: cell-based
[38] = AUC (2 to 24 hrs) in Sprague-Dawley rat whole blood at 10 mg/kg, po by LC/MS/MS analysis; assay type: ADME, organism-based; set-up: time upper 24 hr, time lower 2 hr, dose 10 mg/kg, route oral
Hepatitis C virus [39] = test: microbe, parasite or virus in culture; conditions: Huh-7, 72 h
Hepatitis C virus [40] = test: microbe, parasite or virus in culture; conditions: Huh-7
Description: Antiviral activity against Hepatitis C virus infected in human Huh7ET cells assessed as suppression of full length viral RNA replication after 24 to 72 hrs by luciferase reporter gene assay

Hepatitis C virus [41] = test: microbe, parasite or virus in culture; conditions: Huh-7, 24 h
Description: Antiviral activity against Hepatitis C virus infected in human Huh7ET cells assessed as inhibition of viral replication after 24 hrs by RT-PCR analysis

Hepatitis C virus [42] = test: microbe, parasite or virus in culture; conditions: Huh-7, 72 h; remark: listed apart in the source
Description: Antiviral activity against Hepatitis C virus infected in human Huh7ET cells assessed as inhibition of viral replication after 72 hrs by RT-PCR analysis

Hepatitis C virus [43] = test: microbe, parasite or virus in culture; conditions: Huh-7, 120 h
Description: Antiviral activity against Hepatitis C virus infected in human Huh7ET cells assessed as inhibition of viral replication after 120 hrs by RT-PCR analysis

Cytochrome P450 2C19, sequence (P33261 whole entry): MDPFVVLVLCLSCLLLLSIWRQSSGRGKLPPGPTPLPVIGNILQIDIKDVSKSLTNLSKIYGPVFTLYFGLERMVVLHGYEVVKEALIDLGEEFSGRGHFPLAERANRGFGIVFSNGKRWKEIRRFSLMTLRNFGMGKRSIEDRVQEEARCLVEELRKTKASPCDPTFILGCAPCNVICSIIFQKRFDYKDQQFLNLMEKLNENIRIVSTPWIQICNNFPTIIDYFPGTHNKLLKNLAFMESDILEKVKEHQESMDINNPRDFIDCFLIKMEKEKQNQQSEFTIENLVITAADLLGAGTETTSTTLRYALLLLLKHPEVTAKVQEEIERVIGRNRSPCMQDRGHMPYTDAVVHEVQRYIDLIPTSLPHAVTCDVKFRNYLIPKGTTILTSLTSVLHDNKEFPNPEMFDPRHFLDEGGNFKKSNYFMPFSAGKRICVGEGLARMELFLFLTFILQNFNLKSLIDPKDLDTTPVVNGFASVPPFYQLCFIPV
Cytochrome P450 2C9, sequence (P11712 whole entry): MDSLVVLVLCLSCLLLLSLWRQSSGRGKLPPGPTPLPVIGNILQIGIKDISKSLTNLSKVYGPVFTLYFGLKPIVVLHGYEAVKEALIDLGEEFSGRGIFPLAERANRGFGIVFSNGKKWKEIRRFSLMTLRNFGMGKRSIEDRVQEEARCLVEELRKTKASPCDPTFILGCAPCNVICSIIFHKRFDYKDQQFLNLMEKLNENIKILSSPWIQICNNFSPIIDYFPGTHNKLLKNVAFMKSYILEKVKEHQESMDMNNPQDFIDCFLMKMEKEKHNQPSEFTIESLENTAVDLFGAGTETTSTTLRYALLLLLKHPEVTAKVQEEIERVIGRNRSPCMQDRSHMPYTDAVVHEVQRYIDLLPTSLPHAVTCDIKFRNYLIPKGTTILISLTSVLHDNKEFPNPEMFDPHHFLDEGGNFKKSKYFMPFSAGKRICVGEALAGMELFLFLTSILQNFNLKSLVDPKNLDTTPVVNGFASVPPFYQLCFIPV
Cytochrome P450 2D6, sequence (P10635 whole entry): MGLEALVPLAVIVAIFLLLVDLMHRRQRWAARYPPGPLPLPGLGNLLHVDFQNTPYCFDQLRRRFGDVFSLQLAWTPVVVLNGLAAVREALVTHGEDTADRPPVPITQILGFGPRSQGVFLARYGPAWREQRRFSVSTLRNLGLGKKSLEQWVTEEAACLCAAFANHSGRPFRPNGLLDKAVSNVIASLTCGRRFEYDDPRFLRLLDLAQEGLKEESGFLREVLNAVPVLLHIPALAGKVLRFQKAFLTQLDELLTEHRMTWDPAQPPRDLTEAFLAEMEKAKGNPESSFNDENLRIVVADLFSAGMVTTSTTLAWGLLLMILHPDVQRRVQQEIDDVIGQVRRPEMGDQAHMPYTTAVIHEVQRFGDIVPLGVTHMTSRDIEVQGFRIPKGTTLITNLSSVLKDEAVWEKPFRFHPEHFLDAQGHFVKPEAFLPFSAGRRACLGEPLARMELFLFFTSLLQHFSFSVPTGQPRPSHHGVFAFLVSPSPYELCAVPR

- EC90 (Hepatitis C virus [1]; Huh-7, 72 h): 350 nM
- clearance (Liver microsomes): 14 µL/min/mg
- pIC50 (Cytochrome P450 2C19): 4.91
- pIC50 (Cytochrome P450 2C9): 4.87
- pIC50 (Cytochrome P450 2D6): < 4.00
- Cmax [3]: 2990 ng/mL
- Cmax [4]: 2560 ng/mL
- Vd [5]: 4.3 L/kg
- Vd [6]: 1.69 L/kg
- Vd [7]: 1.02 L/kg
- clearance [8]: 1.48 mL/min/kg
- clearance [9]: 2.23 mL/min/kg
- half-life [10]: 26.3 h
- half-life [11]: 22.2 h
- half-life [12]: 42.2 h
- AUC(0-inf) [13]: 22500 ng·h/mL
- AUC(0-inf) [14]: 49900 ng·h/mL
- Cmax [15]: 1760 ng/mL
- Cmax [16]: 900 ng/mL
- Cmax [17]: 2430 ng/mL
- Cmax [18]: 1810 ng/mL
- Cmax [19]: 1930 ng/mL
- Tmax [20]: 4 h
- Tmax [21]: 4 h
- Tmax [22]: 2 h
- AUC(0-inf) [23]: 59200 ng·h/mL
- half-life [24]: 24.6 h
- half-life [25]: 43.3 h
- bioavailability [26]: 23.6%
- bioavailability [27]: 18.9%
- bioavailability [28]: 17.7%
- bioavailability [29]: 15.7%
- AUC(0-t) [30]: 139000 ng·h/mL
- Cmax [31]: 13500 ng/mL
- Cmax [32]: 16800 ng/mL
- Cmax [33]: 1870 ng/mL
- Cmax [34]: 2220 ng/mL
- Drug uptake (Hepatocyte): 0.55 ng/mg
- AUC(0-t) [38]: 18000 ng·h/mL
- pEC50 (Hepatitis C virus [39]): 6.96
- pEC50 (Hepatitis C virus [40]): 6.89
- pEC50 (Hepatitis C virus [41]): 6.92
- pEC50 (Hepatitis C virus [42]): 6.80
- pEC50 (Hepatitis C virus [43]): 6.82
SMILES: C/C=C/C[C@@H](C)[C@@H](O)[C@H]1C(=O)N[C@@H](CC)C(=O)N(C)C(SCCN(C)C)C(=O)N(C)[C@@H](CC(C)(C)O)C(=O)N[C@@H](C(C)C)C(=O)N(C)[C@@H](CC(C)C)C(=O)N[C@@H](C)C(=O)N[C@H](C)C(=O)N(C)[C@@H](CC(C)C)C(=O)N(C)[C@@H](CC(C)C)C(=O)N(C)[C@@H](C(C)C)C(=O)N1C (single isomer, unassigned) [SCY 635]
- Activity (Hepatitis C virus [1]; Hepacivirus hominis, Huh-7): Dose-dependent effect
- Activity [2]: Non-toxic
- Activity (Hepatitis C virus [35]): tde
- CC50 at 72 h [36]: 14200 nM
- CC50 at 72 h [37]: 13700 nM
- Activity (PBMC): Non-toxic
